Results on three molecules are retold here after US20020022659A1, “Crystalline and salt forms of an HIV protease inhibitor” (priority 2000, published 2002).

Values after ≈ are worked out from the molar mass of the structure shown.

One data set addresses HIV protease (Human immunodeficiency virus type 1 group M subtype B, UniProt P04585). Description: HIV protease inhibition (stated as tested, no method given). Type of data set: biochemical.
Data set [1] in a line: Polymorphic relationship of the mono-methane sulfonate forms (relative stability). To be noted: anhydrous monotropic polymorphs of the mono-methane sulfonate; between 20° C. and 206° C. The data set is classed as physicochemical. The text has this:
Form I and Form II are anhydrous monotropic polymorphs. […] Form II, the higher melting form, can be formed directly from crystallization as described above, while Form I can be synthesized using ethyl acetate followed by drying. However, the crystal packing of the ethyl acetate solvate and Form I are distinct from each other confirming that Form I is an actual anhydrous form.

The next data set relates to HIV-1 (RF). Description: HIV RNA assay, microplate based compound evaluation in HIV-1 infected MT-2 cells. The data set is classed as cell-based. To be noted: Human immunodeficiency virus 1, MT2, 72 h; HIV-1 (RF) infected MT-2 cells, 3 days of culture; virus dilutions selected to give this value (inoculum standardisation); read-out: IC90 value (concentration of compound required to reduce the HIV RNA level by 90%). The method, then: DNA Plasmids and in vitro RNA Transcripts:
Plasmid pDAB 72 containing both gag and pol sequences of BH10 (bp 113-1816) cloned into PTZ 19R was prepared according to Erickson-Viitanen et al. AIDS Research and Human Retroviruses 1989, 5, 577. The plasmid was linearized with Bam HI prior to the generation of in vitro RNA transcripts using the Riboprobe Gemini system II kit (Promega) with T7 RNA polymerase. Synthesized RNA was purified by treatment with RNase free DNAse (Promega), phenol-chloroform extraction, and ethanol precipitation. RNA transcripts were dissolved in water, and stored at −70° C. The concentration of RNA was determined from the A260.
Biotinylated capture probes were purified by HPLC after synthesis on an Applied Biosystems (Foster City, Calif.) DNA synthesizer by addition of biotin to the 5′ terminal end of the oligonucleotide, using the biotin-phosphoramidite reagent of Cocuzza, Tet. Lett. 1989, 30, 6287. […]
MT-2 and MT-4 cells were maintained in RPMI 1640 supplemented with 5% fetal calf serum (FCS) for MT-2 cells or 10% FCS for MT-4 cells, 2 mM L-glutamine and 50 μg/mL gentamycin, all from Gibco. […] Infectious titers of HIV-1(RF) stocks were 1-3×10^7 PFU (plaque forming units)/mL as measured by plaque assay on MT-2 cells (see below). […]

On to `CC(C)CN(C[C@@H](O)[C@H](Cc1ccccc1)NC(=O)[C@@H](NC(=O)CNCc1cccc(F)c1)C(C)(C)C)S(=O)(=O)c1cccc(N)c1` [Compound A], for which the “HIV protease inhibitor activity” value on HIV protease is on record as “potent HIV protease inhibitor”.
As for `CC(C)CN(C[C@@H](O)[C@H](Cc1ccccc1)NC(=O)[C@@H](NC(=O)CNCc1cccc(F)c1)C(C)(C)C)S(=O)(=O)c1cccc(N)c1` [Form II], the “Relative stability of polymorphs” value in data set [1] is on record as “more stable than Form I”.
In the case of `Nc1ccn([C@H]2CC[C@@H](CO)O2)c(=O)n1` [ddC, dideoxycytidine], the IC90 in the data set with HIV-1 (RF) was found to be 0.2 µg/mL (≈ 0.947 µM).
